Laboratory results: ChEMBL document CHEMBL1201862, “PubChem BioAssay data set” (2004)
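Results reflect a 48-hour exposure of cells in 96-well plates to compound at five concentrations. GI50 = concentration required for 50% inhibition of growth.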 Active and inactive are the calls of the source. Cut-off read from the data, not from the text of the source: active = GI50 up to about 1.1 µM and inactive = higher.

Legend:
Experiment in all cases: growth of human tumour cells (NCI), 48 h
[1] = system: MOLT-4
[2] = system: SF-295
[3] = system: KM12
[4] = system: M14
[5] = system: SK-MEL-5
[6] = system: IGROV-1
[7] = system: LOX IMVI
[8] = system: NCI-H460
[9] = system: NCI-H522
[10] = system: ACHN
[11] = system: COLO 205
[12] = system: SF-268
[13] = system: 786-0
[14] = system: Malme-3M
[15] = system: HCC 2998
[16] = system: TK-10
[17] = system: UACC-62

Row | Compound | GI50 [1] | GI50 [2] | GI50 [3] | GI50 [4] | GI50 [5] | GI50 [6] | GI50 [7] | GI50 [8] | GI50 [9] | GI50 [10] | GI50 [11] | GI50 [12] | GI50 [13] | GI50 [14] | GI50 [15] | GI50 [16] | GI50 [17]
1 | COc1ccc(C(C2=C(C)C(=O)c3ccccc3C2=O)c2ccc(C(C)C)cc(=O)c2O)cc1 (configuration not stated) | 3.47 µM (inactive) | 4.7 µM (inactive) | 4.3 µM (inactive) | 2.53 µM (inactive) | 5.96 µM (inactive) | 4.16 µM (inactive) | 3.55 µM (inactive) | 3.78 µM (inactive) | 13.8 µM (inactive) | 3.05 µM (inactive) | 5.31 µM (inactive) | 3.77 µM (inactive) | 2.53 µM (inactive) | 4.26 µM (inactive) |  |  | 
2 | COc1cc(/C=C/C(=O)c2sc(-n3nc(-c4ccccc4)cc3-c3ccccc3)nc2C)ccc1O | 17.5 µM (inactive) | 57 µM (inactive) | 15.5 µM (inactive) |  | 55.2 µM (inactive) | 94.6 µM (inactive) | > 100 µM (inactive) | > 100 µM (inactive) | 14.5 µM (inactive) | > 100 µM (inactive) | > 100 µM (inactive) | > 100 µM (inactive) | > 100 µM (inactive) | > 100 µM (inactive) | > 100 µM (inactive) | > 100 µM (inactive) | > 100 µM (inactive)
3 | COc1cc(CC(=O)c2cc3c(cc2-c2ccccc2)OCO3)cc(OC)c1OC | 17.7 µM (inactive) | 34.5 µM (inactive) | > 100 µM (inactive) | 45.9 µM (inactive) | 6.62 µM (inactive) | 23.1 µM (inactive) | 0.253 µM (active) | 67.9 µM (inactive) | 18.7 µM (inactive) | 6.95 µM (inactive) | 56.4 µM (inactive) | 75.7 µM (inactive) | > 100 µM (inactive) | 16.9 µM (inactive) | > 100 µM (inactive) | 32.9 µM (inactive) | 
4 | CC1=C(C)C(=O)c2c(cc3c4ccccc4ccn23)C1=O | > 100 µM (inactive) | > 100 µM (inactive) | > 100 µM (inactive) | > 100 µM (inactive) | > 100 µM (inactive) | > 100 µM (inactive) | > 100 µM (inactive) | > 100 µM (inactive) | > 100 µM (inactive) | > 100 µM (inactive) | > 100 µM (inactive) |  | > 100 µM (inactive) | > 100 µM (inactive) |  | > 100 µM (inactive) | > 100 µM (inactive)
5 | CCOC(=O)c1cc2c3c(c(O)c(OC)c2s1)N(C(=O)c1cc2c4c(c(O)c(OC)c2s1)N(C(C)=O)CC4)CC3 |  | 54.3 µM (inactive) | > 100 µM (inactive) | 46.5 µM (inactive) | 85.1 µM (inactive) | > 100 µM (inactive) | > 100 µM (inactive) | > 100 µM (inactive) | > 100 µM (inactive) | 77.3 µM (inactive) | > 100 µM (inactive) | > 100 µM (inactive) | 36.6 µM (inactive) | 77.8 µM (inactive) | > 100 µM (inactive) | > 100 µM (inactive) | 98.6 µM (inactive)
6 | CC(C)CC1CC2C(=O)N(c3ccccc3)C(=O)C2c2[nH]c3ccccc3c21 (configuration not stated) | 17.9 µM (inactive) | 20.7 µM (inactive) | 52.7 µM (inactive) | 28.2 µM (inactive) | > 80.9 µM (inactive) | 17.7 µM (inactive) | 16.8 µM (inactive) | 29.2 µM (inactive) | 20.9 µM (inactive) | 38 µM (inactive) | 31 µM (inactive) | > 56.2 µM (inactive) | 66.5 µM (inactive) | 9.73 µM (inactive) | 17.4 µM (inactive) |  | 12.4 µM (inactive)
7 | O=C1C2=C(c3ccccc31)C(c1ccccc1Cl)N1C(=O)CCSC1=N2 (configuration not stated) | 84.7 µM (inactive) | > 100 µM (inactive) | > 100 µM (inactive) | > 100 µM (inactive) | > 100 µM (inactive) | > 100 µM (inactive) |  |  | 35.7 µM (inactive) | > 100 µM (inactive) | > 100 µM (inactive) | > 100 µM (inactive) | > 100 µM (inactive) | > 100 µM (inactive) | > 100 µM (inactive) | > 100 µM (inactive) | 76.7 µM (inactive)
8 | C=C(CN(CC(=C)C(=O)c1ccccc1)C(C)(C)C)C(=O)c1ccccc1 | 2.49 µM (inactive) | 28.3 µM (inactive) | 13 µM (inactive) | 10.5 µM (inactive) | 16.8 µM (inactive) | 20.5 µM (inactive) | 16.4 µM (inactive) | 20.6 µM (inactive) | 2.86 µM (inactive) | 8.99 µM (inactive) | 2.65 µM (inactive) | 12.2 µM (inactive) | 11.3 µM (inactive) | 15.3 µM (inactive) | 19 µM (inactive) | 13.8 µM (inactive) | 17.2 µM (inactive)
9 | COC1CCC(=C2C(=O)OC(C)(C)OC2=O)N1 (configuration not stated) | > 100 µM (inactive) | > 100 µM (inactive) | > 100 µM (inactive) | > 100 µM (inactive) |  | > 100 µM (inactive) | > 100 µM (inactive) | > 100 µM (inactive) | > 100 µM (inactive) | > 100 µM (inactive) | > 100 µM (inactive) | > 100 µM (inactive) | > 100 µM (inactive) | > 100 µM (inactive) | > 100 µM (inactive) | > 100 µM (inactive) | > 100 µM (inactive)
10 | C=CCSc1ncnc2c1ncn2C1OC(CO)C(O)C1O (configuration not stated) | 3.58 µM (inactive) | 87.5 µM (inactive) | > 100 µM (inactive) | 33 µM (inactive) | > 100 µM (inactive) | > 100 µM (inactive) | 4.72 µM (inactive) | 38.9 µM (inactive) | 11.9 µM (inactive) | 20.1 µM (inactive) | 41.2 µM (inactive) | 34.7 µM (inactive) | 79.4 µM (inactive) | > 100 µM (inactive) | 24.3 µM (inactive) | 68.7 µM (inactive) | > 100 µM (inactive)
11 | Cc1cc2c(=O)cc(-c3ccc(O)cc3)oc2c(C(=O)O)c1C | > 100 µM (inactive) | > 100 µM (inactive) | > 100 µM (inactive) | > 100 µM (inactive) | > 100 µM (inactive) | > 100 µM (inactive) | > 100 µM (inactive) | > 100 µM (inactive) | > 100 µM (inactive) | > 100 µM (inactive) | > 100 µM (inactive) |  | > 100 µM (inactive) | > 100 µM (inactive) | > 100 µM (inactive) | > 100 µM (inactive) | > 100 µM (inactive)
12 | CCN(CC)c1ccc(Cl)c2c1C(O)(C(C)C)C2(C)C (configuration not stated) | 16.5 µM (inactive) | 18.9 µM (inactive) | 15.1 µM (inactive) | 16.4 µM (inactive) | 15.4 µM (inactive) | 14.7 µM (inactive) | 17.3 µM (inactive) | 13.4 µM (inactive) | 14.5 µM (inactive) | 17.4 µM (inactive) | 15.2 µM (inactive) | 28.2 µM (inactive) | 14.5 µM (inactive) | 13.9 µM (inactive) | 14.8 µM (inactive) | 16.6 µM (inactive) | 
13 | Nc1nc2c3nc(Nc4ccccc4)sc3nc(=S)n2c2sc(Nc3ccccc3)nc12 |  | > 100 µM (inactive) |  | > 100 µM (inactive) | > 100 µM (inactive) | > 100 µM (inactive) |  |  | 8.34 µM (inactive) | > 100 µM (inactive) | > 100 µM (inactive) | 12.1 µM (inactive) | 73.8 µM (inactive) | 47.4 µM (inactive) | 22.2 µM (inactive) |  | 46.7 µM (inactive)
14 | COc1cc(OC)c2c(=O)c3cccc([N+](=O)[O-])c3n(C)c2c1 | 47 µM (inactive) | > 100 µM (inactive) | > 100 µM (inactive) | > 100 µM (inactive) | > 100 µM (inactive) | 61.4 µM (inactive) | 80.4 µM (inactive) |  | 52.4 µM (inactive) |  | > 100 µM (inactive) | > 100 µM (inactive) | > 100 µM (inactive) | > 100 µM (inactive) |  | > 100 µM (inactive) | > 100 µM (inactive)
15 | [O-][S+](Cc1ccccc1)c1nc2ccccc2nc1-c1cccs1 (configuration not stated) | 3.53 µM (inactive) | 24.7 µM (inactive) | 16 µM (inactive) | 11 µM (inactive) | 11.4 µM (inactive) | 14.6 µM (inactive) |  | 20 µM (inactive) | 1.21 µM (inactive) | 13.9 µM (inactive) | 20 µM (inactive) | 17.8 µM (inactive) | 11.3 µM (inactive) | 6.18 µM (inactive) | 12.4 µM (inactive) | 14.3 µM (inactive) | 
16 | Cc1ccc2c(c1)-c1c3c(nn1C)-c1ccccc1SC3O2 (configuration not stated) | 26.1 µM (inactive) | 83.8 µM (inactive) | 38.6 µM (inactive) |  |  | > 100 µM (inactive) | > 100 µM (inactive) | 65.8 µM (inactive) | 78.7 µM (inactive) | 54.1 µM (inactive) | 75.5 µM (inactive) | 55.6 µM (inactive) | > 100 µM (inactive) | > 100 µM (inactive) | 34 µM (inactive) | > 100 µM (inactive) | 
17 | CC(C)(C)C1=CC(=C(P(=O)(O)O)P(=O)(O)O)C=C(C(C)(C)C)C1=O | > 50 µM (inactive) | > 50 µM (inactive) | > 50 µM (inactive) | > 50 µM (inactive) | > 50 µM (inactive) | > 50 µM (inactive) | > 50 µM (inactive) | > 50 µM (inactive) | > 50 µM (inactive) | > 50 µM (inactive) |  | > 50 µM (inactive) | > 50 µM (inactive) | > 50 µM (inactive) | > 50 µM (inactive) | > 50 µM (inactive) | > 50 µM (inactive)
18 | CC/C(=C(\c1ccccc1)c1ccc(OCC[N+](C)(C)C)cc1)c1ccccc1 [TAMOXIFEN METHYL IODIDE] | 17.7 µM (inactive) | 16.9 µM (inactive) | 13.3 µM (inactive) | 14.7 µM (inactive) | 4.59 µM (inactive) | 8.81 µM (inactive) | 11.3 µM (inactive) | 17.1 µM (inactive) | 4.99 µM (inactive) | 17.5 µM (inactive) | 5.31 µM (inactive) | 15.3 µM (inactive) | 13.7 µM (inactive) | 12.8 µM (inactive) | 17.1 µM (inactive) |  | 11 µM (inactive)
